According to ChEMBL document CHEMBL5380866, “Discovery of Selective P2Y6R Antagonists with High Affinity and In Vivo Efficacy for Inflammatory Disease Therapy” (J Med Chem, 2023):
The source made the active and inactive calls. No cut-off for these calls is given here.

Key:
P2Y purinoceptor 6 [1] = target: T1, P2Y purinoceptor 6 (Homo sapiens, UniProt Q15077); assay: Antagonist activity at human P2Y6R expressed in HEK293 cells assessed as inhibition of UDP-induced IP3 production preincubated for 0.5 hrs followed by UDP stimulation and measured after 12 hrs by ELISA analysis; assay type: functional, cell-based
Mus musculus [2] = assay: Anti-inflammatory activity against DSS-induced acute ulcerative colitis intrarectal dosed C57BL/6J mouse model assessed as reduction in inflammatory infiltration administered daily from 1 to 7 days by H and E staining based microscopic analysis; assay type: functional, organism-based; conditions: route rec, time 1-7 day
P2Y purinoceptor 6 [3] = target: T1, P2Y purinoceptor 6; assay: Binding affinity to human recombinant P2Y6R assessed as dissociation constant by grating-coupled interferometry analysis
HT-29 = assay: Cytotoxicity against human HT-29 cells assessed as inhibition of cell growth at below 10 uM incubated for 12 to 24 hrs by CCK-8 assay; assay type: functional, cell-based; conditions: time 12-24 hrs
A549 = assay: Cytotoxicity against human A549 cells assessed as inhibition of cell growth at below 10 uM incubated for 12 hrs by CCK-8 assay; assay type: functional, cell-based
[4] = AUC (0 to t) in Sprague-Dawley rat at 2 mg/kg, iv measured at 3 to 480 mins by LC-MS/MS analysis; assay type: ADME, organism-based; design: dose 2 mg/kg, time 3-480 min, route iv; conditions: in vivo
[5] = Cmax in Sprague-Dawley rat at 2 mg/kg, iv measured at 3 to 480 mins by LC-MS/MS analysis; assay type: ADME, organism-based; design: time upper 480 min, time lower 3 min, dose 2 mg/kg, route iv; conditions: in vivo
[6] = Half life in Sprague-Dawley rat at 2 mg/kg, iv measured at 3 to 480 mins by LC-MS/MS analysis; assay type: ADME, organism-based; conditions: in vivo, time 3-480 min
[7] = Clearance in Sprague-Dawley rat at 2 mg/kg, iv measured at 3 to 480 mins by LC-MS/MS analysis; assay type: ADME, organism-based; conditions: in vivo, time 3-480 min
[8] = MRT in Sprague-Dawley rat at 2 mg/kg, iv measured at 3 to 480 mins by LC-MS/MS analysis; assay type: ADME, organism-based; conditions: in vivo, time 3-480 min
[9] = Volume of distribution in Sprague-Dawley rat at 2 mg/kg, iv measured at 3 to 480 mins by LC-MS/MS analysis; assay type: ADME, organism-based; conditions: in vivo, time 3-480 min
[10] = AUC (0 to t) in Sprague-Dawley rat at 20 mg/kg, po measured at 10 to 720 mins by LC-MS/MS analysis; assay type: ADME, organism-based; design: time upper 720 min, time lower 10 min, dose 20 mg/kg, route po; conditions: in vivo
[11] = Cmax in Sprague-Dawley rat at 20 mg/kg, po measured at 10 to 720 mins by LC-MS/MS analysis; assay type: ADME, organism-based; design: time upper 720 min, dose 20 mg/kg, time lower 10 min, route po; conditions: in vivo
[12] = Half life in Sprague-Dawley rat at 20 mg/kg, po measured at 10 to 720 mins by LC-MS/MS analysis; assay type: ADME, organism-based; conditions: in vivo, time 10-720 min
[13] = Tmax in Sprague-Dawley rat at 20 mg/kg, po measured at 10 to 720 mins by LC-MS/MS analysis; assay type: ADME, organism-based; conditions: in vivo, time 10-720 min
[14] = Oral bioavailability in Sprague-Dawley rat at 20 mg/kg measured at 10 to 720 mins by LC-MS/MS analysis; assay type: ADME, organism-based; conditions: in vivo, time 10-720 min
Mus musculus [15] = assay: Anti-inflammatory activity against DSS-induced acute ulcerative colitis intrarectal dosed C57BL/6J mouse model assessed as decrease in spleen index administered daily from 1 to 7 days; assay type: functional, organism-based; conditions: route rec, time 1-7 day
Mus musculus [16] = assay: Anti-inflammatory activity against DSS-induced acute ulcerative colitis intrarectal dosed C57BL/6J mouse model assessed as […] length administered daily from 1 to 7 days; assay type: functional, organism-based; conditions: route rec, time 1-7 day
Mus musculus [17] = assay: Anti-inflammatory activity against DSS-induced acute ulcerative colitis intrarectal dosed C57BL/6J mouse model assessed as decrease in crypt necrosis administered daily from 1 to 7 days by H and E staining based microscopic analysis; assay type: functional, organism-based; conditions: route rec, time 1-7 day
Mus musculus [18] = assay: Anti-inflammatory activity against DSS-induced acute ulcerative colitis intrarectal dosed C57BL/6J mouse model assessed as decrease in goblet cells administered daily from 1 to 7 days by H and E staining based microscopic analysis; assay type: functional, organism-based; conditions: route rec, time 1-7 day
Mus musculus [19] = assay: Anti-inflammatory activity against DSS-induced acute ulcerative colitis intrarectal dosed C57BL/6J mouse model assessed as decrease in mucosal damage administered daily from 1 to 7 days by H and E staining based microscopic analysis; assay type: functional, organism-based; conditions: route rec, time 1-7 day
Mus musculus [20] = assay: Anti-inflammatory activity against DSS-induced acute ulcerative colitis intrarectal dosed C57BL/6J mouse model assessed as […] Occludin expression at high dose measured after 8 hrs by Western blot analysis; assay type: functional, organism-based; conditions: route rec
Mus musculus [21] = assay: Anti-inflammatory activity against DSS-induced acute ulcerative colitis intrarectal dosed C57BL/6J mouse model assessed as […] ZO-1 expression at high dose measured after 8 hrs by Western blot analysis; assay type: functional, organism-based; conditions: route rec
Mus musculus [22] = assay: Anti-inflammatory activity against DSS-induced acute ulcerative colitis intrarectal dosed C57BL/6J mouse model assessed as […] claudin-1 expression at high dose measured after 8 hrs by Western blot analysis; assay type: functional, organism-based; conditions: route rec
Mus musculus [23] = assay: Inhibition of NLRP3 inflammasome activation in DSS-induced acute ulcerative colitis intrarectal dosed C57BL/6J mouse model assessed as decrease in colon NLRP3 expression measured after 8 hrs by Western blot analysis; assay type: functional, organism-based; conditions: route rec
Mus musculus [24] = assay: Inhibition of NLRP3 inflammasome activation in DSS-induced acute ulcerative colitis intrarectal dosed C57BL/6J mouse model assessed as decrease in colon ASC expression measured after 8 hrs by Western blot analysis; assay type: functional, organism-based; conditions: route rec
Mus musculus [25] = assay: Inhibition of NLRP3 inflammasome activation in DSS-induced acute ulcerative colitis intrarectal dosed C57BL/6J mouse model assessed as decrease in colon caspase-1 expression measured after 8 hrs by Western blot analysis; assay type: functional, organism-based; conditions: route rec
Mus musculus [26] = assay: Anti-inflammatory activity against LPS-induced acute lung injury C57BL/6J mouse model assessed as reduction in pulmonary edema administered IT(Intratracheal) pretreated with LPS followed by compound addition and measured after 12 hrs; assay type: functional, organism-based; conditions: dose 1-5 mg/kg
Mus musculus [27] = assay: (§1) Anti-inflammatory activity against LPS-induced acute lung injury C57BL/6J mouse model assessed as reduction in inflammatory infiltration in BALF administered IT(Intratracheal) pretreated with LPS followed by compound addition and measured after 12 hrs; assay type: functional, organism-based; conditions: dose 1-5 mg/kg
Mus musculus [28] = assay: as §1, with “lung at 1 to 5 mg/kg,” for “BALF administered”, “hrs by H and E staining based microscopic analysis” for “hrs”; assay type: functional, organism-based; conditions: dose 1-5 mg/kg
Mus musculus [29] = assay: Anti-inflammatory activity against LPS-induced acute lung injury C57BL/6J mouse model assessed as restoration of lung structure at 1 to 5 mg/kg, IT(Intratracheal) pretreated with LPS followed by compound addition and measured after 12 hrs by H and E staining based microscopic analysis; assay type: functional, organism-based; conditions: dose 1-5 mg/kg
Mus musculus [30] = assay: Anti-inflammatory activity against LPS-induced acute lung injury C57BL/6J mouse model assessed as decrease in lung TNF-alpha mRNA expression level 1 to 5 mg/kg, IT(Intratracheal) pretreated with LPS followed by compound addition and measured after 12 hrs RT-PCR analysis; assay type: functional, organism-based; conditions: dose 1-5 mg/kg
Mus musculus [31] = assay: Anti-inflammatory activity against LPS-induced acute lung injury C57BL/6J mouse model assessed as decrease in lung IL-1beta mRNA expression level 1 to 5 mg/kg, IT(Intratracheal) pretreated with LPS followed by compound addition and measured after 12 hrs RT-PCR analysis; assay type: functional, organism-based; conditions: dose 1-5 mg/kg
Mus musculus [32] = assay: Anti-inflammatory activity against LPS-induced acute lung injury C57BL/6J mouse model assessed as decrease in TNF-alpha secretion in BALF 1 to 5 mg/kg, IT(Intratracheal) pretreated with LPS followed by compound addition and measured after 12 hrs ELISA analysis; assay type: functional, organism-based; conditions: dose 1-5 mg/kg
Mus musculus [33] = assay: Anti-inflammatory activity against LPS-induced acute lung injury C57BL/6J mouse model assessed as decrease in IL-1beta secretion in BALF 1 to 5 mg/kg, IT(Intratracheal) pretreated with LPS followed by compound addition and measured after 12 hrs ELISA analysis; assay type: functional, organism-based; conditions: dose 1-5 mg/kg
Mus musculus [34] = assay: Anti-inflammatory activity against LPS-induced acute lung injury C57BL/6J mouse model assessed as reversal of increase in TLR4 expression level 1 to 5 mg/kg, IT(Intratracheal) pretreated with LPS followed by compound addition and measured after 12 hrs by Western blot analysis; assay type: functional, organism-based; conditions: dose 1-5 mg/kg
Mus musculus [35] = assay: Anti-inflammatory activity against LPS-induced acute lung injury C57BL/6J mouse model assessed as reversal of increase in MyD88 expression level 1 to 5 mg/kg, IT(Intratracheal) pretreated with LPS followed by compound addition and measured after 12 hrs by Western blot analysis; assay type: functional, organism-based; conditions: dose 1-5 mg/kg
Mus musculus [36] = assay: Anti-inflammatory activity against LPS-induced acute lung injury C57BL/6J mouse model assessed as reversal of increase in ERK-phosphorylation level 1 to 5 mg/kg, IT(Intratracheal) pretreated with LPS followed by compound addition and measured after 12 hrs by Western blot analysis; assay type: functional, organism-based; conditions: dose 1-5 mg/kg
Mus musculus [37] = assay: Anti-inflammatory activity against LPS-induced acute lung injury C57BL/6J mouse model assessed as reversal of increase in p-38 phosphorylation level 1 to 5 mg/kg, IT(Intratracheal) pretreated with LPS followed by compound addition and measured after 12 hrs by Western blot analysis; assay type: functional, organism-based; conditions: dose 1-5 mg/kg
P2Y purinoceptor 6 [38] = target: T1, P2Y purinoceptor 6; assay: Binding affinity to human recombinant P2Y6R expressed in HEK293 cells at 500 uM pretreated for 1 hrs followed by pulldown using streptavidin agarose resin by Western blot analysis; assay type: cell-based; conditions: filed as antagonist

T1 sequence (Q15077 whole entry): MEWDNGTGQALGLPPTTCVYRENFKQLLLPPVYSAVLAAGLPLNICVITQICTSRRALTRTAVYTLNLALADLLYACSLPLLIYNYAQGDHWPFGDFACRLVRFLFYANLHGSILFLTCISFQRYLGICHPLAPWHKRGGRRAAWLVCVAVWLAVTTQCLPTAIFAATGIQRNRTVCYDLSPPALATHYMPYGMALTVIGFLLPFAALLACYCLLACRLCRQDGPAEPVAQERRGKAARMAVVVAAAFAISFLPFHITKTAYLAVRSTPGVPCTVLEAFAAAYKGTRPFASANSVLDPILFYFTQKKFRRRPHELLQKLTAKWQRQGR

CC(C)(C)n1nc(-c2nc3cc(C(F)(F)F)ccc3[nH]2)cc1-c1ccco1 gave an IC50 (P2Y purinoceptor 6 [1]) of 15.2 nM.
With O=C(O)CCC(=O)N1N=C(c2nc3cc(Cl)ccc3[nH]2)CC1c1ccco1 (stereo unspecified) the IC50 (P2Y purinoceptor 6 [1]) was 457 nM.
With CC(C)(C)n1nc(-c2nc3c(Cl)cccc3[nH]2)cc1-c1ccco1 the IC50 (P2Y purinoceptor 6 [1]) was 93.5 nM.
For CC(C)(C)n1nc(-c2nc3ccccc3[nH]2)cc1-c1ccccc1, the IC50 (P2Y purinoceptor 6 [1]) was 49.2 nM.
S=C=Nc1cccc(NC(=S)NCCCCNC(=S)Nc2cccc(N=C=S)c2)c1 showed an IC50 (P2Y purinoceptor 6 [1]) of 27.5 nM.
Molecule Cc1ccc2nc(-c3cc(-c4ccccc4)n(C(C)(C)C)n3)oc2c1 has an IC50 (P2Y purinoceptor 6 [1]) of 42.5 nM.
For CC(C)(C)n1nc(-c2nc3cc(F)ccc3[nH]2)cc1-c1ccco1, the IC50 (P2Y purinoceptor 6 [1]) was 64.1 nM.
For CC(C)(C)n1nc(-c2nc3cc(Cl)ccc3[nH]2)cc1-c1ccco1, the Activity (Mus musculus [2]) was “Active”, the IC50 (P2Y purinoceptor 6 [1]) was 5.91 nM and the Kd (P2Y purinoceptor 6 [3]) was 3470 nM. The inhibition (HT-29) was “inactive”, the inhibition (A549) was “inactive” and the AUC(0-t) [4] was 261 ng·h/mL. For the same molecule, the Cmax [5] was 1050 ng/mL, the half-life [6] was 1.81 h and the clearance [7] was 130 mL/min/kg. The MRT [8] was 0.575 h, the Vd [9] was 20.1 L/kg and the AUC(0-t) [10] was 415 ng·h/mL. The Cmax [11] was 53.7 ng/mL, the half-life [12] was 6.46 h and the Tmax [13] was 2 h. The bioavailability [14] was 15.9%, the Activity (Mus musculus [15]) was “Dose-Dependent Effect” and the Activity (Mus musculus [16]) was “Dose-Dependent Effect”. The Activity (Mus musculus [17]) was “Active”, the Activity (Mus musculus [18]) was “Active” and the Activity (Mus musculus [19]) was “Active”. The Activity (Mus musculus [20]) was “Active”, the Activity (Mus musculus [21]) was “Active” and the Activity (Mus musculus [22]) was “Active”. The inhibition (Mus musculus [23]) was “Active”, the inhibition (Mus musculus [24]) was “Active” and the inhibition (Mus musculus [25]) was “Active”. The Activity (Mus musculus [26]) was “Dose-Dependent Effect”, the Activity (Mus musculus [27]) was “Dose-Dependent Effect” and the Activity (Mus musculus [28]) was “Active”. For the same molecule, the Activity (Mus musculus [29]) was “Active”, the Activity (Mus musculus [30]) was “Active” and the Activity (Mus musculus [31]) was “Active”. For the same molecule, the Activity (Mus musculus [32]) was “Active”, the Activity (Mus musculus [33]) was “Active” and the Activity (Mus musculus [34]) was “Active”. The Activity (Mus musculus [35]) was “Active”, the Activity (Mus musculus [36]) was “Active” and the Activity (Mus musculus [37]) was “Active”.
Work on Cc1ccc2nc(-c3cc(-c4ccco4)n(C(C)(C)C)n3)oc2c1 yielded an IC50 (P2Y purinoceptor 6 [1]) of 72.9 nM.
With CC(C)(C)n1nc(-c2nc3cc(C(=O)NCCOCCOCCOCCNC(=O)CCCC[C@@H]4SC[C@@H]5NC(=O)N[C@@H]54)ccc3[nH]2)cc1-c1ccco1 the Activity (P2Y purinoceptor 6 [38]) was “Active”.
With CC(C)(C)n1nc(-c2nc3ccccc3o2)cc1-c1ccco1 the IC50 (P2Y purinoceptor 6 [1]) was 30.8 nM.
With CC(C)(C)n1nc(-c2nc3cc(OC(F)(F)F)ccc3[nH]2)cc1-c1ccco1 the IC50 (P2Y purinoceptor 6 [1]) was 128 nM.
For CC(C)(C)n1nc(-c2nc3cc(Cl)ccc3[nH]2)cc1-c1ccccc1, the IC50 (P2Y purinoceptor 6 [1]) was 216 nM.
